# Measurements as given in patent US10299714B2, “Blood collection devices containing blood stabilization agent including variegin or analog thereof and/or a polysulfated disaccharide” (Becton, Dickinson and Company, priority 2010, dated 2019).
# Tests used:
# whole blood sample [1] = test: Visual inspection of stored whole blood sample for hemolysis; type: cell-based, human
# Source text: Skilled practitioners will appreciate the hemolyzed samples are an obvious visual clue that damage to blood cells has occurred, either during the collection, transport, or storage of blood samples. Although hemolysis is not necessarily detrimental to any one clinical assay, it is a well known interference for some tests, and thus it is preferable to avoid causing hemolysis. Hemolysis can be measured by visual scale (e.g., mild or slightly pink, moderate or noticeably red, or severe or dark red). Hemolysis can also be measured by spectroscopic measurement of the red color of the hemoglobin itself, and can be reported by the concentration of hemoglobin released into the serum or plasma (e.g., such that less than about 20 mg/dL concentration of released hemoglobin, or to an extent that the hemoglobin concentration cannot be measured visually or by spectroscopy represents “minor or negligible” hemolysis, about 20 to about 100 mg/dL represents “mild” hemolysis, about 100 to about 300 represents “moderate” hemolysis, or greater than about 300 mg/dL represents “severe” hemolysis).
# (§1) The results are shown in Table 5 which lists additives alone or in combination that were spiked into freshly drawn whole blood samples. […] For some of the conditions tested, only a subset of these three parameters was recorded.
# platelets = test: Whole blood impedance aggregometry (Multiplate): platelet aggregation after room temperature storage of drawn blood; type: cell-based, human; settings: for Time after blood draw where aggregation was still measurable above baseline: Table 5, collagen and/or ADP
# Source text: The blood was allowed to stand at room temperature, in undisturbed aliquots, until tested at the times indicated. Samples were inverted several times immediately prior to testing, to re-suspend blood cells that naturally settle over time.
# Measurements: Testing of platelet function (which in this experiment, was aggregation activity) was done using the Multiplate instrument (Verum Diagnostics, Munich, Germany), which uses whole blood as the sample and an increase in impedance as the measurement of platelet aggregation. The instrument was used per manufacturer's instructions. Briefly, 300 microliters of isotonic saline was warmed in each reaction cuvette, and to this was added 300 microliters of the whole blood sample. In reactions where aspirin or other platelet antagonists (inhibitors) were added in vitro, 20 microliters (μL) of a stock solution of aspirin was spiked into the samples. The aggregation reaction was initiated by addition of a platelet agonist, in this case collagen, at 3.2 μg/ml and volume (20 μl) per manufacturer's instructions. Upon addition of the collagen, the impedance measurements began automatically, and were continued for 6 minutes, representing the full course along the x-axis in the graphs shown in FIG. 2. The graphs show platelet aggregation, as reported by impedance, as an arbitrary unitless measurement on the y-axis, over the 6-minute run time on the x-axis. Traces shown are raw platelet aggregation data delivered from the instrument. […] Representative data are shown for blood that dwells at room temperature after the initial draw for 1 hr, 24 hr, 48 hr, and 72 hr. Data are shown for the blood itself, as well for blood pre-treated with aspirin to inhibit platelet function immediately prior to testing.
# The experiments were performed as described in Example 1. In this case, the data are plotted as a function of time that the blood sample dwells outside of the body (x-axis) versus platelet function as shown as the area under the curve (AUC) as one representation of the platelet aggregation signal. AUC is the integrated signal from the raw data traces shown in Example 1, and also is reported as a unitless measurement. The effective background level of the instrument is drawn as a dashed line across the bottom of the graph. Any AUC measurement of aggregation at or below this level was considered so weak as to be unreportable, essentially representing a “null” data level.
# (§2) Relative stability of platelets was examined with respect to a range of concentrations of variegin (SEQ ID NO:1). Experiments were performed as described above, using either collagen or adenosine diphosphate (ADP) as agonists, all per manufacturer's recommended protocols. Table 2 lists a qualitative assessment of stability, namely how long after initially drawing the blood was platelet aggregation measureable above the effective instrument baseline, the time to first visual observation of clotted, insoluble material in the whole blood sample, and an assessment of the severity or extent of the presence of this insoluble material was also recorded.
# These peptides were used as the blood stabilization agent, and were spiked into blood immediately after collection into an empty, evacuated blood collection tube, achieving a final concentration of 150 μM. The blood was allowed to dwell in a whole-blood state at room temperature, until assayed for platelet aggregation potential, all as described in Example 1. Agonists used included collagen and ADP, following manufacturer's instructions.
# whole blood sample [2] = test: Visual inspection of stored whole blood sample for clotted, insoluble material; design: species or system human
# Procedure: as §2
# These peptides were used as the blood stabilization agent, and were spiked into blood immediately after collection into an empty, evacuated blood collection tube, achieving a final concentration of 150 μM. The blood was allowed to dwell in a whole-blood state at room temperature, until assayed for platelet aggregation potential, all as described in Example 1. Agonists used included collagen and ADP, following manufacturer's instructions. Table 4 lists a qualitative assessment of stability, namely how long after initially drawing the sample was platelet aggregation measureable above the effective instrument baseline. Additionally, the time to first visual observation of clotted, insoluble material in the whole blood sample, and an assessment of the severity or extent of the presence of this insoluble material was also recorded. In some cases, only visual characterization of the amount of insoluble material was reported, without having performed any platelet aggregation measurements.
# as §1
# thrombin = thrombin (Homo sapiens, UniProt P00734); settings: reported in Koh; cited from earlier work
# [3] = relatively high concentration, used alone
Compound,"Visual inspection for hemolysis (whole blood sample [1]; Table 5, additive alone at 100 μM)",hemolysis (whole blood sample [1]; [3]),Time after blood draw where aggregation was still measurable above baseline (platelets; additive alone at 50 μM),Time after blood draw where aggregation was still measurable above baseline (platelets; additive alone at 75 μM),Time after blood draw where aggregation was still measurable above baseline (platelets; additive alone at 100 μM),time for stability of the sample for platelet aggregation measurements (platelets; [3]),onset of clotting (whole blood sample [2]; [3]),thrombin inhibition for therapeutic purposes (thrombin),"time after blood draw to solid clotting of the sample (whole blood sample [2]; peptide 150 μM, room temperature)"
"C[C@@H]1CCN(C(=O)[C@H](CCCN=C(N)N)NS(=O)(=O)c2cccc3c2NC[C@H](C)C3)[C@@H](C(=O)O)C1 [Argatroban, (2R,4R)-1-[(2S)-5-(diaminomethylideneamino)-2-[[(3R)-3-methyl-1,2,3,4-tetrahydroquinolin-8-yl]-sulfonylamino]pentanoyl]-4-methyl-piperidine-2-carboxylic acid, reference compound]",Extensive,extensive amounts of hemolysis,30 h,24 h,24 h,less time for stability of the sample for platelet aggregation measurements,faster onset of clotting,–,–
MHKTAPPFDFEAIPEEYLDDES (Synthetic Peptide Variegin Fragment) [Ct22],–,–,–,–,–,–,–,effective thrombin inhibitor,clots solidly within one hour
